Test results published in the METLIN SMRT retention time set (Domingo-Almenara et al. 2019).

assay: gradient 5% acetonitrile 3 min, to 50% in 2 min, to 85% in 15 min, held 3 min, 100 µL/min; conditions: column: Zorbax Extend-C18 2.1 x 50 mm; eluents: water / acetonitrile, 0.1% formic acid
Summary of the method: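 Over 3 months, pure standards in mixtures of ~100 molecules were run by HPLC coupled to a quadrupole time-of-flight mass spectrometer in positive and negative ionization mode. The column was a Zorbax Extend-C18 (2.1 × 50 mm, 1.8 μm) at 100 μL/min, eluted with water and acetonitrile each holding 0.1% formic acid, with 40 μL dead and 900 μL dwell volumes. Retention time was determined from adduct peaks chosen by software and checked manually.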

| Structure (SMILES) | RP-LC retention time |
| --- | --- |
| c1cc(-c2noc(-c3cccnc3)n2)cc(-c2ccn[nH]2)c1 | 777 s |
| Cc1ccc(-c2nc3cc(C)ccn3c2NC(=O)c2ccc(Cl)cc2)cc1 | 742 s |
| Cc1noc(C)c1CC(=O)N1CC(n2cc(COc3ccc(F)cc3)nn2)C1 | 721 s |
| CNc1nc(Nc2ccc(F)cc2C)nc2ccccc12 | 678 s |
| O=C(NCc1noc(C2CCCC2)n1)c1ccccc1 | 796 s |
| O=C(Nc1cnc(N2CCOCC2)nc1)c1ccc(Br)cc1 | 810 s |
| CCCC(C)NC(=O)CN1c2ccc(F)cc2-c2ccccc2S1(=O)=O (stereo unspecified) | 950 s |
| COc1ccc(Cc2nc(-c3cccc(-c4ccnn4C)c3)no2)cc1OC | 904 s |
| Cc1cccc(OCCc2noc(C3CCNC3)n2)c1 (stereo unspecified) | 646 s |
| Cc1cccc(OCC(=O)Nc2c(C(=O)N3CCN(c4ccccn4)CC3)oc3ccccc23)c1 | 800 s |
| O=C(Nc1ccc2c(c1)OCO2)C(=O)c1cccn1Cc1ccc(F)cc1 | 1050 s |
| c1cnn(-c2cc(N3CCCC3)ncn2)c1 | 678 s |
| CC(Oc1ccc(=O)n(-c2ccc(F)cc2)n1)C(=O)Nc1cccc(Cl)c1 (stereo unspecified) | 802 s |
| CCc1ccc(Nc2c(C(=O)N3CCOCC3)cnc3nc(C)ccc23)cc1 | 601 s |
| CN(CCc1noc(-c2ccc(C(=O)NC3CCCC3)cc2)n1)C(=O)c1ccccc1F | 839 s |
| COCCC1CCN(C(=O)CN(C)C(=O)c2cnccn2)CC1 | 580 s |
| CCOc1ccc(-n2ccn3c(CC(C)CC(=O)NCC(C)C)nnc3c2=O)cc1 (stereo unspecified) | 683 s |
| COc1cccc(C2=NC3(CCN(C(C)C)CC3)NC(c3cc(Br)ccc3O)C2)c1 (stereo unspecified) | 647 s |
| Cc1nc(-c2ccccc2)nc2c1CCC(=O)N2Cc1cccs1 | 1120 s |
| COc1cccc(-n2c(=O)c(C(=O)NC(C)c3ccccc3)c(O)c3cccnc32)c1 (stereo unspecified) | 1180 s |
| Cc1ccc(CNc2c(-c3ccc(N(C)C)cc3)nc3ncccn23)cc1 | 889 s |
| Cc1nc(-c2nnc(NC(=O)Cn3cnc4c3c(=O)n(C)c(=O)n4C)o2)cs1 | 569 s |
| O=C(c1cc2ccccc2[nH]1)N1CCN(c2cc(-c3cccs3)[nH]n2)CC1 | 832 s |
| CCC(C(=O)NCCOC)n1nc(C)c2nn(-c3ccccc3)c(C)c2c1=O (stereo unspecified) | 763 s |
| O=C(NC1(c2nc(-c3ccccc3)no2)CCCCC1)c1ccc(Br)cc1 | 1240 s |
| CCC(C)NC(=O)Cn1nc2c(Oc3ccccc3)nc3ccccc3n2c1=O (stereo unspecified) | 895 s |
| CCC(=O)Nc1ccc(-n2cnc(C(=O)N3CCc4ccccc4C3)c2)nc1 | 721 s |

| Structure (SMILES) | RP-LC retention time |
| --- | --- |
| Cc1ccccc1NC(=O)Cn1nc(N2CCOCC2)c2ccccc2c1=O | 774 s |
| Cc1cccc(C)c1Nc1c(-c2ccc(N(C)C)cc2)nc2ncccn12 | 747 s |
| COc1ccc(-c2cn3ccn(-c4ccc(OC)c(Cl)c4)c(=O)c3n2)cc1 | 1240 s |
| COc1ccccc1OC(C)C(=O)N1CCN(c2nc(CN3CCOCC3)cs2)CC1 (stereo unspecified) | 621 s |
| CC(NC(=O)c1ccc2ncnc(N3CCCCC3)c2c1)c1cccnc1 (stereo unspecified) | 545 s |
| COc1ccccc1NC(=O)N1CCN(Cc2nc3ccc(Cl)cc3o2)CC1 | 731 s |
| CCCCN(C)c1nc(-c2ccc(Cl)cc2Cl)nc2ccccc12 | 893 s |
| O=C(CCNc1c(-c2cccc(F)c2)nc2cnccn12)NCc1cc(F)cc(F)c1 | 769 s |
| COC(=O)c1nnn(-c2ccccc2C(F)(F)F)c1N | 936 s |
| O=C(N1CCCC1c1nc(CCOCC2CC2)no1)C1(c2ccccc2)CC1 (stereo unspecified) | 886 s |
| O=C(CCCn1ncn2c(cc3occc32)c1=O)N1CCN(c2ccccn2)CC1 | 577 s |
| O=C(NCCCn1c(C(F)(F)F)nc2cccnc21)Nc1ccccc1Br | 860 s |
| CC1=NS(=O)(=O)N(Cc2ccccc2)C=C1C(=O)OCc1ccccc1C | 1170 s |
| O=C(N[C@H]1CN2CCC1CC2)c1ccc(Cl)cc1 | 630 s |
| CCSc1nc(NC(C)C)c2cnn(CCNC(=O)Cc3c(C)noc3C)c2n1 | 716 s |
| COc1ccc(C2CCCN2C(=O)Cc2cccs2)cc1 (stereo unspecified) | 875 s |
| Cc1cc(OCCCCOc2ccc(C#N)cc2)ccc1[N+](=O)[O-] | 1250 s |
| COC(=O)c1nnn(-c2cc(C)cc(C)c2)c1C(=O)OC | 949 s |
| O=C(NCc1ccccn1)C1CCCN(C(=O)NCc2cccs2)C1 (stereo unspecified) | 550 s |
| CCN1CCC[C@H]1CNC(=O)c1c(O)c(Cl)cc(Cl)c1OC | 777 s |
| O=C1C(c2cccs2)N(Cc2ccc3c(c2)OCO3)C(=O)CN1c1ccccc1 (stereo unspecified) | 899 s |
| Cc1nn(C)c(C)c1CCN(C)c1nc(C2CC2)nc2c1CCC2 | 604 s |
| CC(C)c1ccc(NC(=O)Cn2cccc2-c2nc(-c3ccc4c(c3)OCO4)no2)cc1 | 1220 s |
| c1ccc(-c2csc(Nc3cccnc3)n2)cc1 | 674 s |
| CC(C)Cn1cc(CCNC(=O)Nc2ccc(Br)cc2)c2cccnc21 | 932 s |
| CCCNC(=O)Cn1c(CNC(C)=O)nc2ccccc21 | 575 s |
| C=CCn1nnc(NCc2ccc(-c3cc(Cl)ccc3Cl)o2)n1 | 1130 s |

The remaining lines, values ahead:

| RP-LC retention time | Structure (SMILES) |
| --- | --- |
| 914 s | Cc1cccc(Cn2cc(C(=O)O)c(S(=O)(=O)N3CCSCC3)n2)c1 |
| 574 s | O=C(CCC[C@@H]1[C@H]2CCCN3CCC[C@@H](CN1C(=O)c1ccccc1)[C@@H]23)NC1CCS(=O)(=O)C1 (stereo partly specified) |
| 703 s | CCN1CCN(CC(=O)N2N=C(c3cccs3)CC2c2ccc(F)cc2)C(=O)C1=O (stereo unspecified) |
| 920 s | CC1CCN(c2cc(-n3cnc(C(=O)N4CCCCC4)c3)ncn2)CC1 |
| 587 s | CCOCC(=O)N1CCCn2ccnc2C1C1CCCC1 (stereo unspecified) |
| 794 s | O=C(Nc1ccc(F)cc1)N1CCC(N2CCN(Cc3ccccc3)C2=O)CC1 |
| 719 s | Cc1cc(-c2ccc(C)c(S(=O)(=O)N3CCN(c4ccccn4)CC3)c2)on1 |
| 699 s | COc1ccccc1N1CCN(C(=O)c2cc(C3CC3)[nH]n2)CC1 |
| 754 s | Cc1cccc(CNS(=O)(=O)c2ccc3c(c2)CCCC(=O)N3)c1 |
| 873 s | Cc1ccc(S(=O)(=O)NNC(=O)C23CCC(CC2)C3)cc1 |
| 984 s | O=C(c1ccc(Br)o1)N1CCC(c2cnn(-c3ccc(F)cc3)c2)CC1 |
| 818 s | Cc1ccc(C)c(Sc2ccc(N3CCC(C(=O)NCc4ccco4)CC3)nn2)c1 |
| 586 s | Cc1nnc(N2CCC(C(=O)NCCN(C)C)CC2)c2nn(-c3ccc(Cl)cc3)c(C)c12 |
| 1080 s | COc1ccc(S(=O)(=O)N2CC(=O)N(C3CCCC3)C3(CCCCC3)C2)cc1OC |
| 610 s | O=C(COc1ccccc1)N1CCCC(OCc2nc(C3CC3)no2)C1 (stereo unspecified) |
| 566 s | O=C1CCN(C(=O)c2ccco2)CCCC(CO)CCN1 (stereo unspecified) |
| 670 s | CCN1CCN(C(=O)CN2C(=O)C3CCCCN3c3ccc(S(=O)(=O)N(CC)CC)cc32)CC1 (stereo unspecified) |
| 734 s | CCn1cnc2cc(-c3noc(C4CC(=O)N(c5ccc(C)c(C)c5)C4)n3)ccc21 (stereo unspecified) |
| 851 s | O=c1ccc(S(=O)(=O)N2CCCCC2)cn1Cc1ccccc1 |

| RP-LC retention time | Structure (SMILES) |
| --- | --- |
| 944 s | CCOC(=O)C1CCN(c2ncnc3c2cnn3-c2ccccc2)CC1 |
| 744 s | O=C(NCc1ccco1)N1CC2CN(S(=O)(=O)c3cccc(F)c3)CC(C1)O2 |
| 658 s | Cc1c(S(=O)(=O)N2CCOCC2)cc(C(=O)N2CCCC2)n1C |
| 618 s | COc1ccc(CCNC(=O)C2CCCN(c3ccc(-c4ccco4)nn3)C2)cc1OC (stereo unspecified) |
| 986 s | COc1cc(-c2nnc(-c3ccc(C)c(S(=O)(=O)N4CCCC4)c3)o2)cc(OC)c1OC |
| 945 s | Cc1ccc2c(c1)N(S(C)(=O)=O)CCC(C(=O)NCc1ccccc1Cl)O2 (stereo unspecified) |
| 638 s | Cc1ccc(N2C(=O)CCS2(=O)=O)cc1S(=O)(=O)N1CCC(C(N)=O)CC1 |
| 668 s | CCOC(=O)N1CCN(c2nnc(SCC(=O)NCc3ccco3)s2)CC1 |
| 809 s | Cc1cc2c(cc1S(=O)(=O)N1CCCC1C(=O)Nc1ccccc1F)OC(C)C(=O)N2 (stereo unspecified) |
| 906 s | Cc1nnc(-c2coc(S(=O)(=O)N(C)C3CCCCC3)c2)o1 |
| 933 s | Cc1ccc(S(=O)(=O)N2C(=O)CCC2C(=O)Nc2cccc3ccccc23)cc1 (stereo unspecified) |
| 666 s | O=C(OCCN1CCCCC1)c1c[nH]c2ccccc12 |
| 1230 s | CC1CCCCN1CCNC(=O)c1ccc(-c2ccnc(N3CCCC3)n2)cc1 (stereo unspecified) |
| 651 s | O=C(NCCCN1CCOCC1)C1CCCN(c2nccnc2Sc2ccccc2)C1 (stereo unspecified) |
| 596 s | O=C(NCCN1CCCCCC1)C(=O)Nc1ccc2nc3n(c(=O)c2c1)CCCCC3 |
| 706 s | CN(c1ccc(F)cc1)S(=O)(=O)N1CCCC(C(=O)NCCCN2CCc3ccccc3C2)C1 (stereo unspecified) |
| 788 s | Cn1c(=O)sc2cc(S(=O)(=O)N3CCC(C(=O)NCc4cccs4)CC3)ccc21 |
| 622 s | CC(=O)N1CCc2cc(CNC(=O)c3ccnn3C)ccc21 |
